In US6433012B1, “Method for inhibiting inflammatory disease” (Large Scale Biology Corp., priority 1998, dated 2002):
Marks after values point to notes of the source that are not given here.

What was measured:
[1] = test system: rhodamine-labeled tubulin; assay: Cell-free fluorescence assay of microtubule assembly; type: biochemical; settings: 15 μM tubulin, GTP
Source text: Microtubules are major cytoskeletal components composed of α- and β-tubulin heterodimers bound with GTP. […] The effect of the drug on microtubule assembly was investigated directly by using a cell-free fluorescence assay involving the visualization of microtubule formation from rhodamine-labeled tubulin and microtubule seeds in the presence of GTP.

[2] = test system: MDA MB-231 and MCF-7 cells; assay: Nuclear morphology of breast carcinoma cells; type: cell-based, human; settings: 1 μ for 48 h
[3] = test system: MCF-7 human breast carcinoma cells; assay: Chromosome condensation / prometaphase arrest; type: cell-based; settings: 1 μM for 24 h
MCF-7 cells = assay: Flow cytometry, cell-cycle progression; type: cell-based, human; settings: 1 μM, within 24 h
Source text: Such arrested cells eventually undergo cell death which can occur by an apoptotic mechanism.

[4] = test system: angiogenesis induced by hFGF-B in the chick chorioallantoic membrane (CAM); assay: Chick chorioallantoic membrane (CAM) assay, 14C-proline incorporation into collagenous protein; type: in vivo; parameters: inhibition of hFGF-B-induced angiogenesis: dose or concentration left out as unconfirmed
Source text: This example illustrates the anti-angiogenic properties of methyl-3,5-diiodo-4-(4′-methoxyphenoxy)benzoate in the chick chorioallantoic membrane assay (CAM). The endpoint of the CAM assay was a quantitative determination of basement membrane biosynthesis by measuring the incorporation of ^14C-proline into Type IV collagenous protein.
The CAM assay involves the development of live chick embryos in Petri dishes under special sterile conditions. Therefore, only limited numbers of embryos can be used for evaluation of compounds in a single experiment. For this reason, two separate assays were conducted to test the three Biosource compounds at three concentrations per compound. In this assay, a known angiogenesis inhibitor, 2-methoxyestradiol (2-ME), was used as the positive control, and human fibroblast growth factor (hFGF) was used to induce angiogenesis in the CAM.
For testing, a minimum amount of acetone-methanol (1:1) was added to the test compounds for sterilization. The acetone-methanol mixture was then evaporated to dryness in a sterile hood. The compounds were dissolved dimethyl sulfoxide (DMSO) first and then diluted with saline containing methylcellulose. The final concentrations were 2% DMSO and 0.5% methylcellulose. All test solutions were added to each CAM in […].
Fresh fertile eggs were incubated for three days in a standard egg incubator. On Day 3, eggs were cracked under sterile conditions and embryos were placed in 20×100 mm plastic Petri dishes and cultivated at 37° C. in an embryo incubator with a water reservoir on the bottom shelf. Air was continuously bubbled into the water reservoir by using a small pump so that the humidity in the incubator was kept constant. Observations were made daily to ensure that all embryos were healthy. Dead or unhealthy embryos were removed from the incubator immediately to avoid contamination. On Day 9, a sterile silicone ring cup was placed on each CAM and […] of ^14C-proline with or without the test compound plus 2.5 ng of hFGF dissolved in saline containing 0.5% methylcellulose was delivered into each ring cup in a sterile hood. 2-ME was tested in parallel to serve as a reference compound. After addition of test materials, the embryos were returned to the incubator and cultivation continued. On Day 12, all embryos were transferred to a cold room at 4-10° C. The antiangiogenic effect of each test compound was determined by using the collagenase assay (Maragoudakis, et al., J. Pharm. Exp. Ther. 251:679-682 (1989)) to measure ^14C-proline incorporation into collagenous protein.
With the embryos placed on ice, a piece of CAM 10 mm in diameter was cut off under each ring cup and placed in a separate tube. To each tube was added 1.0 mL of phosphate-buffered saline (PBS, pH 7.3) containing 0.11 mg cycloheximide and 0.17 mg dipyridyl. The tubes were placed in a boiling water bath for 10 min and then cooled to room temperature. The PBS in each tube was discarded after centrifugation at 3000× g for 10 min. The CAM residue was washed once with 3 mL of 15% TCA and then three times with 3 mL of 5% TCA. Centrifugation was carried out as described above between each washing. At this point all non-protein bound radioactivity was removed, and the CAM containing the newly synthesized ^14C-collagenous protein was suspended in 0.9 mL of 0.1 N NaOH and 1.1 mL of HEPES buffer at pH 7.4. The pH of the sample was neutralized with 0.8 N HCl, using phenol red as indicator.
To digest the ^14C-collagenous protein, 7.5 units of collagenase and 500 nmol of calcium chloride in […] of HEPES buffer was added to the above samples, and mixtures were incubated at 37° C. for 4 h. The reaction was stopped by adding 1.0 mL of 20% TCA containing 5 mg of tannic acid into each tube. After vortex mixing, the samples were centrifuged at 3000× g for 10 min. […]

[5] = Table 1 experiment, dose 8.3 μg/CAM
[6] = Table 1 experiment, dose 25 μg/CAM
[7] = Table 1 experiment, dose 75 μg/CAM
[8] = Table 2 experiment, dose 8.3 μg/CAM
[9] = Table 2 experiment, dose 25 μg/CAM
[10] = Table 2 experiment, dose 75 μg/CAM

COC(=O)c1cc(I)c(Oc2ccc(OC)cc2)c(I)c1 [BTO-956, methyl-3,5-diiodo-4-(4′-methoxyphenoxy)benzoate] was tested, and the microtubule formation ([1]; compound 1 μM) was “much shorter structures”, the microtubule formation ([1]; compound 10 μM) was “The same effect was observed” and the nuclear morphology [2] was “a significant number had condensed or fragmented nuclei”. For the same molecule, the “chromosome condensation (prometaphase arrest)” value [3] was “A large fraction of these cells showed chromosome condensation characteristic of a prometaphase arrest”, the “cells arrested at G2/M” value (MCF-7 cells) was “at least 60%” and the “inhibition of hFGF-B-induced angiogenesis” value [4] was 30%. The “% Inhibition” value [4, 5] was 0%, the “^14C-Proline Incorporated into Collagenous Protein (mean ± S.E.)” value [4, 5] was 6884 ± 1395 cpm/mg-protien and the “% Inhibition” value [4, 6] was 19%. The “^14C-Proline Incorporated into Collagenous Protein (mean ± S.E.)” value [4, 6] was 5098 ± 785 cpm/mg-protien, the “% Inhibition” value [4, 7] was 31% and the “^14C-Proline Incorporated into Collagenous Protein (mean ± S.E.)” value [4, 7] was 4374 ± 651 cpm/mg-protien. For the same molecule, the “% Inhibition” value [4, 8] was 10%, the “^14C-Proline Incorporated into Collagenous Protein (mean ± S.E.)” value [4, 8] was 10138 ± 1625 cpm/mg-protien and the “% Inhibition” value [4, 9] was 18%. For the same molecule, the “^14C-Proline Incorporated into Collagenous Protein (mean ± S.E.)” value [4, 9] was 9100 ± 1664 cpm/mg-protien, the “% Inhibition” value [4, 10] was 32% and the “^14C-Proline Incorporated into Collagenous Protein (mean ± S.E.)” value [4, 10] was 7534 ± 1099^a cpm/mg-protien.
